# Test results from patent US12077503B2, “Substituted cyclic amides and their use as herbicides” (FMC CORPORATION, priority 2015, dated 2024).
# What was measured:
# Format in all cases: in vivo
# [1] = test system: ragweed (common ragweed, Ambrosia elatior); experiment: Test A postemergence; conditions: Ambrosia artemisiifolia, post-emergence, 240 h
# How it was run: (§1)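 Compounds were formulated in a non-phytotoxic solvent mixture with surfactant and applied as a preemergence directed soil spray after seeding, or sprayed postemergence over plants 2 to 10 cm tall at the one- to two-leaf stage. Evaluation after about 10 d compared treated with untreated controls, using a scale from 0 (no effect) to 100 (complete control).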
# [2] = test system: pigweed (Amaranthus retroflexus); experiment: Test A postemergence; conditions: Amaranthus retroflexus, post-emergence, 240 h
# How it was run: as §1
# [3] = test system: blackgrass (Alopecurus myosuroides); experiment: Test A postemergence; conditions: Alopecurus myosuroides, post-emergence, 240 h
# How it was run: as §1
# [4] = test system: barnyardgrass (Echinochloa crus-galli); experiment: Test A postemergence; conditions: Echinochloa crus-galli, post-emergence, 240 h
# How it was run: as §1
# [5] = test system: ryegrass, Italian (Italian ryegrass, Lolium multiflorum); experiment: Test A postemergence; conditions: Lolium multiflorum, post-emergence, 240 h
# How it was run: as §1
# Kochia (Kochia scoparia) [6] = experiment: Test A postemergence; conditions: Bassia scoparia, post-emergence, 240 h
# How it was run: as §1
# corn (Zea mays) = experiment: Test A postemergence; conditions: Zea mays, post-emergence, 240 h
# How it was run: as §1
# [7] = test system: giant foxtail (Setaria faberii); experiment: Test A postemergence; conditions: Setaria faberi, post-emergence, 240 h
# How it was run: as §1
# [8] = test system: wheat (Triticum aestivum); experiment: Test A postemergence; conditions: Triticum aestivum, post-emergence, 240 h
# How it was run: as §1
# [9] = test system: barnyardgrass (Echinochloa crus-galli); experiment: Test B flooded paddy test; conditions: Echinochloa crus-galli, 250 g ai/ha, Flood; 0 to 100 scale where 0 is no effect and 100 is complete control; read-out: Barnyardgrass plant response rating
# How it was run: (§2)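 Flooding to 3 cm over soil accompanied treatment, which consisted of adding compound to the standing water around 2-leaf plants; depth was then maintained. Visual assessment versus controls followed at 13 to 15 d (scale 0–100, 0 meaning no effect).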
# [10] = test system: sedge, umbrella (small-flower umbrella sedge, Cyperus difformis); experiment: Test B flooded paddy test; conditions: Cyperus difformis, 250 g ai/ha, Flood; 0 to 100 scale where 0 is no effect and 100 is complete control; read-out: Sedge, Umbrella plant response rating
# How it was run: as §2
# [11] = test system: ducksalad (Heteranthera limosa); experiment: Test B flooded paddy test; conditions: Heteranthera limosa, 250 g ai/ha, Flood; 0 to 100 scale where 0 is no effect and 100 is complete control; read-out: Ducksalad plant response rating
# How it was run: as §2
# rice (Oryra sativa) = experiment: Test B flooded paddy test; conditions: Oryza sativa, 250 g ai/ha, Flood; 0 to 100 scale where 0 is no effect and 100 is complete control; read-out: Rice plant response rating
# How it was run: as §2
# [12] = test system: ragweed (common ragweed, Ambrosia elatior); experiment: Test A preemergence; conditions: Ambrosia artemisiifolia, pre-emergence, 240 h, 0 to 100 scale where 0 is no effect and 100 is complete control, read-out: Ragweed plant response rating
# How it was run: as §1
# [13] = test system: pigweed (Amaranthus retroflexus); experiment: Test A preemergence; conditions: Amaranthus retroflexus, pre-emergence, 240 h, 0 to 100 scale where 0 is no effect and 100 is complete control, read-out: Pigweed plant response rating
# [14] = test system: barnyardgrass (Echinochloa crus-galli); experiment: Test A preemergence; conditions: Echinochloa crus-galli, pre-emergence, 240 h, 0 to 100 scale where 0 is no effect and 100 is complete control, read-out: Barnyardgrass plant response rating
# How it was run: as §1
# [15] = test system: ryegrass, Italian (Italian ryegrass, Lolium multiflorum); experiment: Test A preemergence; conditions: Lolium multiflorum, pre-emergence, 240 h, 0 to 100 scale where 0 is no effect and 100 is complete control, read-out: Ryegrass, Italian plant response rating
# How it was run: as §1
# Kochia (Kochia scoparia) [16] = experiment: Test A preemergence; conditions: Bassia scoparia, pre-emergence, 240 h, 0 to 100 scale where 0 is no effect and 100 is complete control, read-out: Kochia plant response rating
# How it was run: as §1
# [17] = test system: giant foxtail (Setaria faberii); experiment: Test A preemergence; conditions: Setaria faberi, pre-emergence, 240 h, 0 to 100 scale where 0 is no effect and 100 is complete control, read-out: Foxtail, Giant plant response rating
# How it was run: as §1
# [18] = 125 g ai/ha, preemergence, approx. 10 d
compound,measurement,setting,value
CC(C)Oc1cc([C@H]2CN(C)C(=O)[C@@H]2C(=O)Nc2cccc(F)c2F)ccc1F [Compound 1075],pest or weed control at 125 g/ha,"[1]; 125 g ai/ha, postemergence, visual injury on 0 to 100 scale (0 no effect, 100 complete control), approx. 10 d, read-out: Ragweed plant response rating",40%
same,pest or weed control at 31 g/ha,"[1]; Postemergence, 31 g ai/ha, visual injury after approx. 10 d, 0 to 100 scale, 0 no effect, 100 complete control, read-out: Plant response rating, Ragweed",0%
same,pest or weed control at 125 g/ha,"[2]; 125 g ai/ha, postemergence, visual injury on 0 to 100 scale (0 no effect, 100 complete control), approx. 10 d, read-out: Pigweed plant response rating",0%
same,pest or weed control at 31 g/ha,"[2]; Postemergence, 31 g ai/ha, visual injury after approx. 10 d, 0 to 100 scale, 0 no effect, 100 complete control, read-out: Plant response rating, Pigweed",0%
same,pest or weed control at 125 g/ha,"[3]; 125 g ai/ha, postemergence, visual injury on 0 to 100 scale (0 no effect, 100 complete control), approx. 10 d, read-out: Blackgrass plant response rating",50%
same,pest or weed control at 31 g/ha,"[3]; Postemergence, 31 g ai/ha, visual injury after approx. 10 d, 0 to 100 scale, 0 no effect, 100 complete control, read-out: Plant response rating, Blackgrass",40%
same,pest or weed control at 125 g/ha,"[4]; 125 g ai/ha, postemergence, visual injury on 0 to 100 scale (0 no effect, 100 complete control), approx. 10 d, read-out: Barnyardgrass plant response rating",90%
same,pest or weed control at 31 g/ha,"[4]; Postemergence, 31 g ai/ha, visual injury after approx. 10 d, 0 to 100 scale, 0 no effect, 100 complete control, read-out: Plant response rating, Barnyardgrass",90%
same,pest or weed control at 125 g/ha,"[5]; 125 g ai/ha, postemergence, visual injury on 0 to 100 scale (0 no effect, 100 complete control), approx. 10 d, read-out: Ryegrass, Italian plant response rating",70%
same,pest or weed control at 31 g/ha,"[5]; Postemergence, 31 g ai/ha, visual injury after approx. 10 d, 0 to 100 scale, 0 no effect, 100 complete control, read-out: Plant response rating, Ryegrass, Italian",0%
same,pest or weed control at 125 g/ha,"Kochia (Kochia scoparia) [6]; 125 g ai/ha, postemergence, visual injury on 0 to 100 scale (0 no effect, 100 complete control), approx. 10 d, read-out: Kochia plant response rating",30%
same,pest or weed control at 31 g/ha,"Kochia (Kochia scoparia) [6]; Postemergence, 31 g ai/ha, visual injury after approx. 10 d, 0 to 100 scale, 0 no effect, 100 complete control, read-out: Plant response rating, Kochia",30%
same,plant injury at 125 g/ha,"corn (Zea mays); 125 g ai/ha, postemergence, visual injury on 0 to 100 scale (0 no effect, 100 complete control), approx. 10 d, read-out: Corn plant response rating",70%
same,"Corn plant response rating (crop injury, 0 = no effect, 100 = complete kill) at 31 g/ha","corn (Zea mays); Postemergence, 31 g ai/ha, visual injury after approx. 10 d, 0 to 100 scale, 0 no effect, 100 complete control",20%
same,pest or weed control at 125 g/ha,"[7]; 125 g ai/ha, postemergence, visual injury on 0 to 100 scale (0 no effect, 100 complete control), approx. 10 d, read-out: Foxtail, Giant plant response rating",90%
same,pest or weed control at 31 g/ha,"[7]; Postemergence, 31 g ai/ha, visual injury after approx. 10 d, 0 to 100 scale, 0 no effect, 100 complete control, read-out: Plant response rating, Foxtail, Giant",80%
same,plant injury at 125 g/ha,"[8]; 125 g ai/ha, postemergence, visual injury on 0 to 100 scale (0 no effect, 100 complete control), approx. 10 d, read-out: Wheat plant response rating",60%
same,plant injury at 31 g/ha,"[8]; Postemergence, 31 g ai/ha, visual injury after approx. 10 d, 0 to 100 scale, 0 no effect, 100 complete control, read-out: Plant response rating, Wheat",0%
same,pest or weed control at 250 g/ha,[9],75%
same,pest or weed control at 250 g/ha,[10],0%
same,pest or weed control at 250 g/ha,[11],100%
same,pest or weed control at 250 g/ha,rice (Oryra sativa),35%
same,pest or weed control at 31 g/ha,"[12]; 31 g ai/ha, Preemergence",30%
same,pest or weed control at 125 g/ha,[12]; [18],20%
same,pest or weed control at 31 g/ha,"[13]; 31 g ai/ha, Preemergence",0%
same,pest or weed control at 125 g/ha,[13]; [18],20%
same,pest or weed control at 31 g/ha,"[14]; 31 g ai/ha, Preemergence",100%
same,pest or weed control at 125 g/ha,[14]; [18],100%
same,pest or weed control at 31 g/ha,"[15]; 31 g ai/ha, Preemergence",50%
same,pest or weed control at 125 g/ha,[15]; [18],80%
same,pest or weed control at 31 g/ha,"Kochia (Kochia scoparia) [16]; 31 g ai/ha, Preemergence",0%
same,pest or weed control at 125 g/ha,Kochia (Kochia scoparia) [16]; [18],30%
same,pest or weed control at 31 g/ha,"[17]; 31 g ai/ha, Preemergence",100%
same,pest or weed control at 125 g/ha,[17]; [18],100%
